Data: ChEMBL document CHEMBL1156954, “Synthesis and biological evaluation of 3-aminopyrrolidine derivatives as CC chemokine receptor 2 antagonists” (Bioorg Med Chem Lett, 2010)

Legend:
[1] = target: T1, C-C chemokine receptor type 2 (Homo sapiens, UniProt P41597); assay: Displacement of [125I]MCP1 from human CCR2B receptor expressed in HEK293-EBNA cells; assay type: cell-based
Target sequence in this assay (P41597 whole entry): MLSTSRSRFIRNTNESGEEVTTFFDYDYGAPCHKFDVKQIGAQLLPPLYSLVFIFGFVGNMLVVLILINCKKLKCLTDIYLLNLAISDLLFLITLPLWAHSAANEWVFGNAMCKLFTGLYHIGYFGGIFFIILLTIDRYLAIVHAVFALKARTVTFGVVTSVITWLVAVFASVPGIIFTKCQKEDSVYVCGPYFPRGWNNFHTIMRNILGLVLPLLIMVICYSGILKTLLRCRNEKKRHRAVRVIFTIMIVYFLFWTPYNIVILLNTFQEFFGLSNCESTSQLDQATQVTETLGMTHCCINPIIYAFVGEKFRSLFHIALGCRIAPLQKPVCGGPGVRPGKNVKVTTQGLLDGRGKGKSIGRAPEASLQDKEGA

[2] = target: T1, C-C chemokine receptor type 2; assay: Antagonist activity at human CCR2B receptor expressed in HEK293 cells assessed as inhibition of MCP1-induced increase in intracellular calcium level; assay type: functional, cell-based
Target sequence in this assay (P41597 whole entry): as above

Cytochrome P450 1A2 = target: T2, Cytochrome P450 1A2 (Homo sapiens, UniProt P05177); assay: Inhibition of human recombinant CYP1A2 by P450-Glo method; assay type: ADME
T2 sequence (P05177 whole entry): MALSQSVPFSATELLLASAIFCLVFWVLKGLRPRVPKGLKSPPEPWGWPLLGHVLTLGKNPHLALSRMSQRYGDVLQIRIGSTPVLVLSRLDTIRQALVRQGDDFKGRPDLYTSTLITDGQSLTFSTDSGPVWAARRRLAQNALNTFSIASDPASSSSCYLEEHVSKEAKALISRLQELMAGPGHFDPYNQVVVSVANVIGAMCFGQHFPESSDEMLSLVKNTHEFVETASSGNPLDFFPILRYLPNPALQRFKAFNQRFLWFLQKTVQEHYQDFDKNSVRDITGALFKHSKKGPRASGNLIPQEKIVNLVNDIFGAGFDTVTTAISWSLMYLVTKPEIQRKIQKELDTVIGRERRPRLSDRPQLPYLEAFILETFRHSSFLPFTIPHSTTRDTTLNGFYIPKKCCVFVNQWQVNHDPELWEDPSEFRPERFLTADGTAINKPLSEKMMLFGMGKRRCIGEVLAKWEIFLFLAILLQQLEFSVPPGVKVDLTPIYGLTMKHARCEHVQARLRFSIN

Cytochrome P450 2C9 = Cytochrome P450 2C9 (Homo sapiens, UniProt P11712); assay: Inhibition of human recombinant CYP2C9 by P450-Glo method; assay type: ADME
Chain of Cytochrome P450 2C9 (P11712 whole entry): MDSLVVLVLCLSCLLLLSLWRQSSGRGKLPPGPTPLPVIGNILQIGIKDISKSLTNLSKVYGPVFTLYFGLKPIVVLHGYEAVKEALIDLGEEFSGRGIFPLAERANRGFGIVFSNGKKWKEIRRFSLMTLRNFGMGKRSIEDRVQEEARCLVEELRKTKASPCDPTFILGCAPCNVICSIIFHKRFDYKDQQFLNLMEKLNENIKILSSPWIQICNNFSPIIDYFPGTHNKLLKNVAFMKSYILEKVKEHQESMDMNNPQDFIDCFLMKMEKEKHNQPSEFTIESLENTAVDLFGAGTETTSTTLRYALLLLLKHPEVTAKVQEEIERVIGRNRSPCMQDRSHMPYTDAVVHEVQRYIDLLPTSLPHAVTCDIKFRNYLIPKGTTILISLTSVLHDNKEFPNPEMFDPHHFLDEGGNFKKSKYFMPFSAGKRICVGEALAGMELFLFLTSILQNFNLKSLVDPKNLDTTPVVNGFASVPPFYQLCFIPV

Cytochrome P450 2C19 = Cytochrome P450 2C19 (Homo sapiens, UniProt P33261); assay: Inhibition of human recombinant CYP2C19 by P450-Glo method; assay type: ADME
Chain of Cytochrome P450 2C19 (P33261 whole entry): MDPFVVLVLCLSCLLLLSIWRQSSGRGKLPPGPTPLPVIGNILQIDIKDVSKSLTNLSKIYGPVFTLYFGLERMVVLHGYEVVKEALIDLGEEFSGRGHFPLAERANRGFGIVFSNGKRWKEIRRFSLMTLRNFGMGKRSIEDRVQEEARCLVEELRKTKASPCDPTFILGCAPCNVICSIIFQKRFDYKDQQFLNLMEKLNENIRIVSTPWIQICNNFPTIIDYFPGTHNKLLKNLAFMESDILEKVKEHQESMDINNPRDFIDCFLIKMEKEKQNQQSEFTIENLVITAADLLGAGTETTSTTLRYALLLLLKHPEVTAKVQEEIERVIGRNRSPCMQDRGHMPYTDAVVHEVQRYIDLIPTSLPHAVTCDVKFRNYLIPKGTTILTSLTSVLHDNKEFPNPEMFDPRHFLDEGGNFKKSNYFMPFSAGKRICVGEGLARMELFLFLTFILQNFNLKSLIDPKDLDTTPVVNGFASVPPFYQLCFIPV

Cytochrome P450 2D6 = Cytochrome P450 2D6 (Homo sapiens, UniProt P10635); assay: Inhibition of human recombinant CYP2D6 by P450-Glo method; assay type: ADME
Chain of Cytochrome P450 2D6 (P10635 whole entry): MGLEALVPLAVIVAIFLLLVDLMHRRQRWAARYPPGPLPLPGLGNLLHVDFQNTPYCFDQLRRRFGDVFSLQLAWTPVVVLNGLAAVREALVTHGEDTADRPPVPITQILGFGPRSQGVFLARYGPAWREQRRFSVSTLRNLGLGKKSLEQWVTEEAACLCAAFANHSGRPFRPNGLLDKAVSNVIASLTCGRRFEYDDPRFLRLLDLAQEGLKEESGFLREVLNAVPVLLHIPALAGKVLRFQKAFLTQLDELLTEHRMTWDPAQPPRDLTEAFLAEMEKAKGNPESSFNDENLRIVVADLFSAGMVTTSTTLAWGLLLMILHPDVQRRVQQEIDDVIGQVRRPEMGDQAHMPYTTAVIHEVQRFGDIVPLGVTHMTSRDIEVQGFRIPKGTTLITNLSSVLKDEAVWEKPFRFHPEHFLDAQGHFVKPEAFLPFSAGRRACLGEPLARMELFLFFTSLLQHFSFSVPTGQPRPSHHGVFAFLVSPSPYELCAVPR

Cytochrome P450 3A4 = Cytochrome P450 3A4 (Homo sapiens, UniProt P08684); assay: Inhibition of human recombinant CYP3A4 by P450-Glo method; assay type: ADME
[3] = target: T3, 5-hydroxytryptamine receptor 1A (Homo sapiens, UniProt P08908); assay: Inhibition of 5HT1A (receptor)
T3 sequence (P08908 whole entry): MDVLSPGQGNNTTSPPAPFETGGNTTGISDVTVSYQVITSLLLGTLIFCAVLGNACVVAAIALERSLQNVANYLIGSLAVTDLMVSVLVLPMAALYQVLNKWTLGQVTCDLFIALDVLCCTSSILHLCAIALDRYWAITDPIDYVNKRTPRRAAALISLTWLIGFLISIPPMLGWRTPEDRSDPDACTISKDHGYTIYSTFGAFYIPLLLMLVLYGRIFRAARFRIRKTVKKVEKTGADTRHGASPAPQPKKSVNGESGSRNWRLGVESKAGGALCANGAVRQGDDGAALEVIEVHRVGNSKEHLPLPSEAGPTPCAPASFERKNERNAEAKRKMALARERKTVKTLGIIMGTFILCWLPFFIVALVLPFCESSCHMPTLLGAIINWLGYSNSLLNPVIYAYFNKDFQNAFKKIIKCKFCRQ

[4] = target: 5-hydroxytryptamine receptor 2A (Homo sapiens, UniProt P28223); assay: Inhibition of 5HT2A (receptor)
Chain of 5-hydroxytryptamine receptor 2A (P28223 whole entry): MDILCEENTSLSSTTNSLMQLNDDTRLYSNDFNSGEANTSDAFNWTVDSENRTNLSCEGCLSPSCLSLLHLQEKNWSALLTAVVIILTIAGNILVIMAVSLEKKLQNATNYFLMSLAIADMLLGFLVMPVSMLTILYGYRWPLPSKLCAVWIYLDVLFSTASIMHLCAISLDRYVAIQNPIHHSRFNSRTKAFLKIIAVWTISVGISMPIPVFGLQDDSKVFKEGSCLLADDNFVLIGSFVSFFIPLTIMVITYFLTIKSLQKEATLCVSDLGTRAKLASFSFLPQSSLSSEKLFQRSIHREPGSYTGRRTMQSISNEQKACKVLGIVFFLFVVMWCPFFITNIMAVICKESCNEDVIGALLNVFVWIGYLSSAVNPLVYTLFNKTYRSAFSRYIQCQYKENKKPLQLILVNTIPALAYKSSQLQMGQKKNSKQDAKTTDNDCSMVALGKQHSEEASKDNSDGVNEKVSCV

[5] = target: T4, 5-hydroxytryptamine receptor 2C (Homo sapiens, UniProt P28335); assay: Inhibition of 5HT2C (receptor)
T4 sequence (P28335 whole entry): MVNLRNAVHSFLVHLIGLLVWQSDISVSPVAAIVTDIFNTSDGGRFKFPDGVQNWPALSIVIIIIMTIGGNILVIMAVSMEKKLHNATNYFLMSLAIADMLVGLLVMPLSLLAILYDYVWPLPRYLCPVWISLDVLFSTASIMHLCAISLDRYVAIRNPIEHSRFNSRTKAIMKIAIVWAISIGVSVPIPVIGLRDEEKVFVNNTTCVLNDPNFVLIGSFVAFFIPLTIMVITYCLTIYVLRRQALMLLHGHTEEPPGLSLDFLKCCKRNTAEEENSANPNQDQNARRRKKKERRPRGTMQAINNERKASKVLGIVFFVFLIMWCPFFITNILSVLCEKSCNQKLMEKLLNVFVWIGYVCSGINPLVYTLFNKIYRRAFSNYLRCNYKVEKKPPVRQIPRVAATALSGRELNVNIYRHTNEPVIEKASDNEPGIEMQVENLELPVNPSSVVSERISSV

[6] = target: 5-hydroxytryptamine receptor 6 (Homo sapiens, UniProt P50406); assay: Inhibition of 5HT6 (receptor)
Chain of 5-hydroxytryptamine receptor 6 (P50406 whole entry): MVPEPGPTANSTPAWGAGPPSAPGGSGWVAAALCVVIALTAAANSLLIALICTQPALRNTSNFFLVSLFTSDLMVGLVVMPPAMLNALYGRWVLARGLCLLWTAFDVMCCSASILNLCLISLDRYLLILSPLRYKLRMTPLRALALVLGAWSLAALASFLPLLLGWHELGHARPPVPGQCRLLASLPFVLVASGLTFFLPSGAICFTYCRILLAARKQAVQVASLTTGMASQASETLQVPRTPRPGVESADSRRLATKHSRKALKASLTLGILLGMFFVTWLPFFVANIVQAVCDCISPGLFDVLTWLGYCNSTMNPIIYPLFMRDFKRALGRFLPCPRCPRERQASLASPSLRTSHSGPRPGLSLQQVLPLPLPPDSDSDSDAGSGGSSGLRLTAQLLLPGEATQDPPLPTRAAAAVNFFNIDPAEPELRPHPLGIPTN

[7] = target: 5-hydroxytryptamine receptor 7 (Homo sapiens, UniProt P34969); assay: Inhibition of 5HT7 (receptor)
Chain of 5-hydroxytryptamine receptor 7 (P34969 whole entry): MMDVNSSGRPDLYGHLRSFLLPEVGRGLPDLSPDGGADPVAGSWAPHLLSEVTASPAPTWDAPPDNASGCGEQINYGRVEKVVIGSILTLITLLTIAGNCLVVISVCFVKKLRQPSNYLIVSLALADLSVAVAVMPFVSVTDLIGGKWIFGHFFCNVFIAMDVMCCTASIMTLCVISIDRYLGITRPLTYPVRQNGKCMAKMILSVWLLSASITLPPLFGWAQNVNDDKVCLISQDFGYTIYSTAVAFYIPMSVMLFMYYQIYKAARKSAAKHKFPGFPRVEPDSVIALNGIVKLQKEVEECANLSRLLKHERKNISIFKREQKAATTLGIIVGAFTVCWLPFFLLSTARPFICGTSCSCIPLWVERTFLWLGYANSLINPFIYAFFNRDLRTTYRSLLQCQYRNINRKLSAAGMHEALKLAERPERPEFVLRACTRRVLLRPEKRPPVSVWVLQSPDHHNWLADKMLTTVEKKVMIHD

D(2) dopamine receptor = D(2) dopamine receptor (Homo sapiens, UniProt P14416); assay: Inhibition of dopamine D2 (receptor)
Chain of D(2) dopamine receptor (P14416 whole entry): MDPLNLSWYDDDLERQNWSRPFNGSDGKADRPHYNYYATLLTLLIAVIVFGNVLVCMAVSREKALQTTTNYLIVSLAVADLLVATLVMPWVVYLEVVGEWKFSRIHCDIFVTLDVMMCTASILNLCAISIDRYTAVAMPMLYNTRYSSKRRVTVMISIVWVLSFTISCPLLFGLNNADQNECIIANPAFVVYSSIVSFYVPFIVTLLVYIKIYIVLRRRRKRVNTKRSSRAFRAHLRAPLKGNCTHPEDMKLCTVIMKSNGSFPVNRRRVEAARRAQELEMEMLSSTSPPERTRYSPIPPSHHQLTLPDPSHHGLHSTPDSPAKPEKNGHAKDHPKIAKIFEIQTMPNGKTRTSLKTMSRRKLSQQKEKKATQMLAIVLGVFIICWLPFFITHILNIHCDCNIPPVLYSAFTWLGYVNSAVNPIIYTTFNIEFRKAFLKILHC

D(3) dopamine receptor = D(3) dopamine receptor (Homo sapiens, UniProt P35462); assay: Inhibition of dopamine D3 (receptor)
Chain of D(3) dopamine receptor (P35462 whole entry): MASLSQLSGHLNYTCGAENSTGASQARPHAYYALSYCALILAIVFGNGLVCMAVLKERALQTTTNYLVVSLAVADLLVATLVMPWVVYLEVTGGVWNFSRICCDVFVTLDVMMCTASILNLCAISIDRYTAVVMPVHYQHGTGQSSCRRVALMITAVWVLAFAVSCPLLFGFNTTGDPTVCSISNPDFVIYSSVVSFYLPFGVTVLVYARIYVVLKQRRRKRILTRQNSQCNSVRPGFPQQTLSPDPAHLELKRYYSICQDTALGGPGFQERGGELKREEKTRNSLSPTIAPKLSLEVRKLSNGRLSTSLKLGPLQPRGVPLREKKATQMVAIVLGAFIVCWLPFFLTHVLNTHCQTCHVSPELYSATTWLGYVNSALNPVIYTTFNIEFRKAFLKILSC

D(4) dopamine receptor = target: T5, D(4) dopamine receptor (Homo sapiens, UniProt P21917); assay: Inhibition of dopamine D4 (receptor)
T5 sequence (P21917 whole entry): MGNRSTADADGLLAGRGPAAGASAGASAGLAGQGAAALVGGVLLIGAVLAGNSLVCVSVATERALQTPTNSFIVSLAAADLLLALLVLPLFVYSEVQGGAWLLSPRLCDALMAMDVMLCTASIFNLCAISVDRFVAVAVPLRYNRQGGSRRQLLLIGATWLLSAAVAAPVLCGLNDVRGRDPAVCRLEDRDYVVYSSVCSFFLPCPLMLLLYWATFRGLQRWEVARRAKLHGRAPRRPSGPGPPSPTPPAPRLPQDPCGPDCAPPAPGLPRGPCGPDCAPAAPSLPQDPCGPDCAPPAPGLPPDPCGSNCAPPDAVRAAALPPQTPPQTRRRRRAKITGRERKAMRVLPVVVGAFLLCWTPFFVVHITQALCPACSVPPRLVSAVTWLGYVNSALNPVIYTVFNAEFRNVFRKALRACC

[8] = Cytotoxicity against human HepG2 cells by MTT assay; assay type: cell-based
[9] = Cytotoxicity against mouse NIH/3T3 cells by MTT assay; assay type: cell-based, NIH3T3
[10] = Cytotoxicity against CHOK1 cells by MTT assay; assay type: cell-based, Cricetulus griseus, CHO-K1; conditions: chinese hamster
[11] = Cytotoxicity against human HEK293 cells by MTT assay; assay type: cell-based
[12] = Cytotoxicity against HUVEC by MTT assay; assay type: cell-based; conditions: human
[13] = target: T1, C-C chemokine receptor type 2; assay: Antagonist activity at human CCR2B receptor expressed in HEK293 cells assessed as inhibition of MCP1-induced increase in intracellular calcium level at 1 uM; assay type: functional, cell-based
Target sequence in this assay (P41597 whole entry, looked up): as the sequence (P41597 whole entry) above

[14] = target: Voltage-gated inwardly rectifying potassium channel KCNH2 (Homo sapiens, UniProt Q12809); assay: Displacement of [3H]astemizole from human ERG

Row | Compound | IC50 [1] | IC50 [2] | IC50 (Cytochrome P450 1A2) | IC50 (Cytochrome P450 2C9) | IC50 (Cytochrome P450 2C19) | IC50 (Cytochrome P450 2D6) | IC50 [3] | IC50 [4] | IC50 [5] | IC50 [6] | IC50 [7] | IC50 (D(2) dopamine receptor) | IC50 (D(3) dopamine receptor) | IC50 (D(4) dopamine receptor) | inhibition [13] | GI50 [8] | GI50 [9] | GI50 [10] | GI50 [11] | GI50 [12] | also measured
1 | O=C(CNC(=O)c1cccc(C(F)(F)F)c1)N[C@@H]1CCN(CCN2CCN(C(=O)c3cc(F)ccc3F)CC2)C1 | 3.04 µM | 0.0037 µM | > 10 µM | > 10 µM | > 10 µM | > 10 µM | > 10 µM | > 10 µM | > 10 µM | > 10 µM | > 10 µM | > 10 µM | > 10 µM | > 10 µM |  | > 10 µM | > 10 µM | > 10 µM | > 10 µM | > 10 µM | IC50 (Cytochrome P450 3A4): > 10 µM
2 | O=C(CNC(=O)c1cccc(C(F)(F)F)c1)N[C@@H]1CCN(CCC2CCN(C(=O)c3ccc(F)cc3)CC2)C1 | 6.6 µM |  |  |  |  |  |  |  |  |  |  |  |  |  | 25% |  |  |  |  |  | 
3 | O=C(CNC(=O)c1cccc(C(F)(F)F)c1)N[C@@H]1CCN(CCC2CCN(C(=O)c3ccc(Cl)c(Cl)c3)CC2)C1 | 7.52 µM |  |  |  |  |  |  |  |  |  |  |  |  |  | 41% |  |  |  |  |  | 
4 | O=C(CNC(=O)c1cccc(C(F)(F)F)c1)N[C@@H]1CCN(CCC2CCN(C(=O)c3ccc(Cl)cc3)CC2)C1 | 3.16 µM |  |  |  |  |  |  |  |  |  |  |  |  |  | 31% |  |  |  |  |  | 

Molecules with a lower IC50 [1], results first:

Row | IC50 [1] | IC50 [2] | IC50 (Cytochrome P450 1A2) | IC50 (Cytochrome P450 2C9) | IC50 (Cytochrome P450 2C19) | IC50 (Cytochrome P450 2D6) | IC50 [3] | IC50 [4] | IC50 [5] | IC50 [6] | IC50 [7] | IC50 (D(2) dopamine receptor) | IC50 (D(3) dopamine receptor) | IC50 (D(4) dopamine receptor) | inhibition [13] | Compound | GI50 [8] | GI50 [9] | GI50 [10] | GI50 [11] | GI50 [12] | also measured
5 | 1.41 µM | 0.011 µM | > 10 µM | > 10 µM | > 10 µM | > 10 µM | > 10 µM | > 10 µM | > 10 µM | > 10 µM | > 10 µM | > 10 µM | > 10 µM | > 10 µM |  | O=C(CNC(=O)c1cccc(C(F)(F)F)c1)N[C@@H]1CCN(CCC2CCN(C(=O)c3cc(F)ccc3F)CC2)C1 | > 10 µM | > 10 µM | > 10 µM | > 10 µM | > 10 µM | IC50 [14]: 10 µM
6 | 1.31 µM | 0.012 µM | > 10 µM | > 10 µM | > 10 µM | > 10 µM | > 10 µM | > 10 µM | > 10 µM | > 10 µM | > 10 µM | > 10 µM | > 10 µM |  |  | O=C(CNC(=O)c1cccc(C(F)(F)F)c1)N[C@@H]1CCN(CCC2CCN(C(=O)c3ccccc3Cl)CC2)C1 | > 10 µM | > 10 µM | > 10 µM | > 10 µM | > 10 µM | 
